The structures appear in SMILES notation. Numbered stars: 1 amine (or outer) side, 2 acyl side, 3 side chain; on linkers, the order of the positions; unused ones are H or OH. Bridge positions count the residues as written; N and C are the ends. Square brackets hold non-standard residues; d marks the D form. Side chains are listed from the residue outwards. Peptide text beside a SMILES is read from it. * marks the point of attachment. Nle(6-ylidene) = O=C([C@H](CCCC=[*:3])N[*:1])[*:2]; Dip = N[C@H](C(=O)O)C(c1ccccc1)c1ccccc1; Hag = O=C([C@H](CCC=[*:3])N[*:1])[*:2]; Palmitoyl = CCCCCCCCCCCCCCCC(=O)*; β3hF = N[C@H](CC(=O)O)Cc1ccccc1; AllylGly = C=CC[C@H](N)C(=O)O; Isovaleryl = CC(C)CC(=O)*; Ahx = NCCCCCC(=O)O

The test has as its target T1, human ferroportin (SLC40A1) (Homo sapiens, UniProt Q9NP59).
T1 sequence (Q9NP59 1-571): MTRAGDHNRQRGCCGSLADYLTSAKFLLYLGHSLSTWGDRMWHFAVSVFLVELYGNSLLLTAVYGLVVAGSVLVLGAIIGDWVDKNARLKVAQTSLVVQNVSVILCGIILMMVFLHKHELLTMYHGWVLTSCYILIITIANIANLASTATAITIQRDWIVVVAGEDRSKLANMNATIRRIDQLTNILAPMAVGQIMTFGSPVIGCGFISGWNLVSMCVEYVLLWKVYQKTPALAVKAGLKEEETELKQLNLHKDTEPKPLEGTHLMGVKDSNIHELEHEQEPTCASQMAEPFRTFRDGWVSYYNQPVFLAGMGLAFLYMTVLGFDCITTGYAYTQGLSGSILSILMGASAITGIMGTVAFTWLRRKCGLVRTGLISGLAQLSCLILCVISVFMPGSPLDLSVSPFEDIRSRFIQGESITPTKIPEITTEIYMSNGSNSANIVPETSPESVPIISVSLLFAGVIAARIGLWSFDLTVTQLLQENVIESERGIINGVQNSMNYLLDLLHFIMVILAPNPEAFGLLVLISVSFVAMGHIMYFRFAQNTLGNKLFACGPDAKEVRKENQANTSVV
As to the kind of experiment: FPN activity assay: internalization/degradation of ferroportin-GFP in stably transfected HEK293 cells (decrease in GFP fluorescence). The class given is cell-based. The following applies: compound incubated at least 18 hours. Here is the method: Peptide analogues were tested in vitro for induction of internalization of the human ferroportin protein. Following internalization, the ferroporin protein is degraded. The assay used (FPN activity assay) measures a decrease in fluorescence of the receptor. The cDNA encoding the human ferroportin (SLC40A1) was cloned from a cDNA clone from Origene (NM_014585). The DNA encoding the ferroportin was amplified by PCR using primers also encoding terminal restriction sites for subcloning, but without the termination codon. The ferroportin receptor was subcloned into a mammalian GFP expression vector containing a neomycin (G418) resistance marker in such that the reading frame of the ferroportin was fused in frame with the GFP protein. The fidelity of the DNA encoding the protein was confirmed by DNA sequencing. HEK293 cells were used for transfection of the ferroportin-GFP receptor expression plasmid. The cells were grown according to standard protocol in growth medium and transfected with the plasmids using Lipofectamine (manufacturer's protocol, Invitrogen). The cells stably expressing ferroportin-GFP were selected using G418 in the growth medium (in that only cells that have taken up and incorporated the cDNA expression plasmid survive) and sorted several times on a Cytomation MoFloTM cell sorter to obtain the GFP-positive cells (488 nm/530 nm). The cells were propagated and frozen in aliquots. […] Compound was added to desired final concentration for at least 18 hours in the incubator. […] Compound was added to desired final concentration for at least 18 hours but no more than 24 hours in the incubator. […] The “RI” in RI-Mini-Hepcidin refers to Retro Inverse. A retro inverse peptide is a peptide with a reversed sequence in all D amino acids. An example is that […] becomes […]. The EC50 of these reference compounds for ferroportin internalization/degradation was determined according to the FPN activity assay described above. These peptides served as control standards.

As to `CCCCCCCCCCCCCCCC(=O)NCCCCCC(=O)NCCCC[C@H](NC(=O)C[C@H](Cc1ccccc1)NC(=O)[C@@H]1CCC=CCC[C@H](NC(=O)CC(C)C)C(=O)N[C@@H]([C@@H](C)O)C(=O)N[C@@H](Cc2c[nH]cn2)C(=O)N[C@@H](C(c2ccccc2)c2ccccc2)C(=O)N2CCC[C@H]2C(=O)N1)C(N)=O` (single isomer, unassigned) [Compd 20], the half-maximal inhibitory concentration (IC50) – broadly, the concentration at which inhibition is half-maximal – is greater than 500 nM.

Consider `CCCCCCCCCCCCCCCC(=O)NCCCCCC(=O)NCCCC[C@@H]1NC(=O)[C@@H]2CCCN2C(=O)[C@H](C(c2ccccc2)c2ccccc2)NC(=O)[C@H](Cc2c[nH]cn2)NC(=O)[C@H]([C@@H](C)O)NC(=O)[C@@H](NC(=O)CC(C)C)CCC=CCC[C@@H](C(=O)N[C@H](CC(=O)N[C@H](CCCCN)C(N)=O)Cc2ccccc2)NC1=O` (single isomer, unassigned) [Compd 38], for which the IC50 was greater than 500 nM.

`CCCCCCCCCCCCCCCC(=O)NCCCCCC(=O)NCCCC[C@@H]1NC(=O)[C@H](C)NC(=O)[C@@H]2CCCN2C(=O)[C@H](C(c2ccccc2)c2ccccc2)NC(=O)[C@H](Cc2c[nH]cn2)NC(=O)[C@H]([C@@H](C)O)NC(=O)[C@@H](NC(=O)CC(C)C)CCC=CCC[C@@H](C(=O)N[C@H](CC(=O)N[C@H](CCCCN)C(N)=O)Cc2ccccc2)NC1=O` (single isomer, unassigned) [Compd 39] came in with an IC50 of 100 to 500 nM.

For the compound `CCCCCCCCCCCCCCCC(=O)NCCCCCC(=O)NCCCC[C@@H]1NC(=O)[C@@H]2CCCN2C(=O)[C@H](C(c2ccccc2)c2ccccc2)NC(=O)[C@H](Cc2c[nH]cn2)NC(=O)[C@H]([C@@H](C)O)NC(=O)[C@@H](NC(=O)CC(C)C)CCC=CCC[C@@H](C(=O)N[C@H](CC(=O)N[C@H](CCCCN)C(N)=O)Cc2ccccc2)NC1=O` (single isomer, unassigned) [Compd 40], the IC50 was greater than 500 nM.

Compound `CCCCCCCCCCCCCCCC(=O)NCCCCCC(=O)NCCCC[C@H](NC(=O)C[C@H](Cc1ccccc1)NC(=O)[C@@H]1CCC=CCC[C@H](NC(=O)CC(C)C)C(=O)N[C@@H]([C@@H](C)O)C(=O)N[C@@H](Cc2c[nH]cn2)C(=O)N[C@@H](C(c2ccccc2)c2ccccc2)C(=O)N2CCC[C@H]2C(=O)N1)C(N)=O` (single isomer, unassigned) [Compd 86] had an IC50 greater than 500 nM.

Regarding `CCCCCCCCCCCCCCCC(=O)NCCCCCC(=O)NCCCC[C@H](NC(=O)C[C@H](Cc1ccccc1)NC(=O)[C@@H](CCCCN)NC(=O)[C@@H](NC(=O)[C@@H]1CCC=CC[C@H](NC(=O)[C@H](Cc2c[nH]cn2)NC(=O)[C@@H](NC(=O)[C@H](CCC(=O)O)NC(=O)CC(C)C)[C@@H](C)O)C(=O)N2CCC[C@H]2C(=O)N1)[C@@H](C)CC)C(=O)N[C@H](CCCCN)C(N)=O` [Compd 4] (Isovaleryl-ETH[AllylGly]P[Hag]I[dK][β3hF]K([Ahx-Palmitoyl])[dK]-NH2; staple 4-6), the IC50 is greater than 500 nM.

With `CCCCCCCCCCCCCCCC(=O)NCCCCCC(=O)NCCCC[C@H](NC(=O)C[C@H](Cc1ccccc1)NC(=O)[C@@H](CCCCN)NC(=O)[C@@H](NC(=O)[C@@H]1CCC=CCC[C@H](NC(=O)[C@H](Cc2c[nH]cn2)NC(=O)[C@@H](NC(=O)[C@H](CCC(=O)O)NC(=O)CC(C)C)[C@@H](C)O)C(=O)N2CCC[C@H]2C(=O)N1)[C@@H](C)CC)C(=O)N[C@H](CCCCN)C(N)=O` [Compd 5] (Isovaleryl-ETH[Hag]P[Hag]I[dK][β3hF]K([Ahx-Palmitoyl])[dK]-NH2; staple 4-6), the IC50 was greater than 500 nM.

Turning to `CCCCCCCCCCCCCCCC(=O)NCCCCCC(=O)NCCCC[C@H](NC(=O)C[C@H](Cc1ccccc1)NC(=O)[C@@H](CCCCN)NC(=O)[C@@H](NC(=O)[C@@H]1CCCCC[C@H](NC(=O)[C@H](Cc2c[nH]cn2)NC(=O)[C@@H](NC(=O)[C@H](CCC(=O)O)NC(=O)CC(C)C)[C@@H](C)O)C(=O)N2CCC[C@H]2C(=O)N1)[C@@H](C)CC)C(=O)N[C@H](CCCCN)C(N)=O` [Compd 7], the IC50 is greater than 500 nM.

As for `CCCCCCCCCCCCCCCC(=O)NCCCCCC(=O)NCCCC[C@H](NC(=O)C[C@H](Cc1ccccc1)NC(=O)[C@@H](CCCCN)NC(=O)[C@@H](NC(=O)[C@@H]1CCC=CCC[C@H](NC(=O)[C@@H](NC(=O)[C@H](Cc2c[nH]cn2)NC(=O)[C@@H](NC(=O)[C@H](CCC(=O)O)NC(=O)CC(C)C)[C@@H](C)O)C(c2ccccc2)c2ccccc2)C(=O)N1)[C@@H](C)CC)C(=O)N[C@H](CCCCN)C(N)=O` [Compd 11], the IC50 is greater than 500 nM.

`CCCCCCCCCCCCCCCC(=O)NCCCCCC(=O)NCCCC[C@H](NC(=O)C[C@H](Cc1ccccc1)NC(=O)[C@@H]1CCC=CCC[C@H](NC(=O)CC(C)C)C(=O)N[C@@H]([C@@H](C)O)C(=O)N[C@@H](Cc2c[nH]cn2)C(=O)N[C@@H](C(c2ccccc2)c2ccccc2)C(=O)N2CCC[C@H]2C(=O)N[C@@H]([C@@H](C)CC)C(=O)N1)C(N)=O` [Compd 19] (Isovaleryl-[Hag]TH[Dip]PI[Hag][β3hF]K([Ahx-Palmitoyl])-NH2; staple 1-7) displayed an IC50 greater than 500 nM.

`CCCCCCCCCCCCCCCC(=O)NCCCCCC(=O)NCCCC[C@H](NC(=O)[C@@H]1CCC=CCC[C@H](NC(=O)CC(C)C)C(=O)N[C@@H]([C@@H](C)O)C(=O)N[C@@H](Cc2c[nH]cn2)C(=O)N[C@@H](C(c2ccccc2)c2ccccc2)C(=O)N2CCC[C@H]2C(=O)N1)C(N)=O` [Compd 21] (Isovaleryl-[Hag]TH[Dip]P[Hag]K([Ahx-Palmitoyl])-NH2; staple 1-6): the concentration for half-maximal inhibition (IC50) is greater than 500 nM.

In turn, `CCCCCCCCCCCCCCCC(=O)NCCCCCC(=O)NCCCC[C@@H]1NC(=O)[C@@H]2CCCN2C(=O)[C@H](C(c2ccccc2)c2ccccc2)NC(=O)[C@H](Cc2c[nH]cn2)NC(=O)[C@H]([C@@H](C)O)NC(=O)[C@@H](NC(=O)CC(C)C)CCCC=CCCC[C@@H](C(=O)N[C@H](CC(=O)N[C@H](CCCCN)C(N)=O)Cc2ccccc2)NC1=O` [Compd 35] (Isovaleryl-[Nle(6-ylidene)]TH[Dip]PK([Ahx-Palmitoyl])[Nle(6-ylidene)][β3hF][dK]-NH2; staple 1-7) yielded an IC50 greater than 500 nM.

`CCCCCCCCCCCCCCCC(=O)NCCCCCC(=O)NCCCC[C@H](NC(=O)C[C@H](Cc1ccccc1)NC(=O)[C@@H]1CCC=CCC[C@H](NC(=O)CC(C)C)C(=O)N[C@@H]([C@@H](C)O)C(=O)N[C@@H](Cc2c[nH]cn2)C(=O)N[C@@H](C)C(=O)N2CCC[C@H]2C(=O)N[C@@H](C)C(=O)N[C@@H]([C@@H](C)CC)C(=O)N1)C(=O)N[C@H](CCCCN)C(N)=O` [Compd 43] (Isovaleryl-[Hag]THAPAI[Hag][β3hF]K([Ahx-Palmitoyl])[dK]-NH2; staple 1-8): the IC50 is greater than 500 nM.

For the compound `CCCCCCCCCCCCCCCC(=O)NCCCCCC(=O)NCCCC[C@H](NC(=O)C[C@H](Cc1ccccc1)NC(=O)[C@@H]1CCC=CCC[C@H](NC(=O)CC(C)C)C(=O)N[C@@H]([C@@H](C)O)C(=O)N[C@@H](Cc2c[nH]cn2)C(=O)N[C@@H](C(c2ccccc2)c2ccccc2)C(=O)N[C@@H](C)C(=O)N[C@@H](C)C(=O)N[C@@H]([C@@H](C)CC)C(=O)N1)C(=O)N[C@H](CCCCN)C(N)=O` [Compd 44] (Isovaleryl-[Hag]TH[Dip]AAI[Hag][β3hF]K([Ahx-Palmitoyl])[dK]-NH2; staple 1-8), the IC50 was 10 to 100 nM.

Values taken from patent US20240209053A1 (Protagonist Therapeutics, Inc., priority 2021, published 2024).
